Measured values from the supplement of paper PMC10307832.

Experiments:
Assay in all cases: relative viability (nuclei count vs DMSO), 5 days (fraction); higher = more cells survive
XMD13-2 + Decitabine = compound: C1CC1C(=O)NC2=NNC3=C2C=CC(=C3)C4=CC(=CC=C4)C(=O)NC5CC5 [XMD13-2] + Nc1ncn([C@H]2C[C@H](O)[C@@H](CO)O2)c(=O)n1 [Decitabine] (partner 2 µM)
Summary of the method: (§1)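 Medians of duplicate plates are given as relative viability. That measure is the nuclei count in treated wells divided by the count in vehicle wells. Counts were taken on 4× images of lung cancer cell lines in 1536-well plates, 5 days after pin-tool dosing the day after seeding with one drug alone or a fixed anchor-drug dose plus five library-drug doses (not always all listed) in √10 steps.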

ALW-II-49-7 + Crizotinib = compound: Cc1ccc(C(=O)Nc2cccc(C(F)(F)F)c2)cc1Nc1cncc(C(N)=O)c1 [ALW-II-49-7] + C[C@@H](Oc1cc(-c2cnn(C3CCNCC3)c2)cnc1N)c1c(Cl)ccc(F)c1Cl [Crizotinib] (partner 1 µM)
Summary of the method: as §1

Dasatinib + OSI-027 = compound: Cc1nc(Nc2ncc(C(=O)Nc3c(C)cccc3Cl)s2)cc(N2CCN(CCO)CC2)n1 [Dasatinib] + COc1cccc2cc(-c3nc([C@H]4CC[C@H](C(=O)O)CC4)n4ncnc(N)c34)[nH]c12 [OSI-027] (partner 0.5 µM)
Summary of the method: as §1

Dasatinib + Decitabine = compound: Cc1nc(Nc2ncc(C(=O)Nc3c(C)cccc3Cl)s2)cc(N2CCN(CCO)CC2)n1 [Dasatinib] + Nc1ncn([C@H]2C[C@H](O)[C@@H](CO)O2)c(=O)n1 [Decitabine] (partner 2 µM)
Summary of the method: as §1

## UMC-11
XMD13-2 + Decitabine; first compound 0.05 µM
  relative viability: 0.62
XMD13-2 + Decitabine; first compound 0.1581 µM
  relative viability: 0.585
XMD13-2 + Decitabine; first compound 0.5 µM
  relative viability: 0.793
XMD13-2 + Decitabine; first compound 1.581 µM
  relative viability: 0.625
XMD13-2 + Decitabine; first compound 5 µM
  relative viability: 0.579
ALW-II-49-7 + Crizotinib; first compound 0.08 µM
  relative viability: 0.531
ALW-II-49-7 + Crizotinib; first compound 0.253 µM
  relative viability: 0.613
ALW-II-49-7 + Crizotinib; first compound 2.53 µM
  relative viability: 0.755
ALW-II-49-7 + Crizotinib; first compound 8 µM
  relative viability: 0.553
Dasatinib + OSI-027; first compound 0.005 µM
  relative viability: 0.459
Dasatinib + OSI-027; first compound 0.01581 µM
  relative viability: 0.375
Dasatinib + OSI-027; first compound 0.05 µM
  relative viability: 0.413
Dasatinib + OSI-027; first compound 0.1581 µM
  relative viability: 0.329
Dasatinib + OSI-027; first compound 0.5 µM
  relative viability: 0.264
Dasatinib + Decitabine; first compound 0.005 µM
  relative viability: 0.58
Dasatinib + Decitabine; first compound 0.01581 µM
  relative viability: 0.595
Dasatinib + Decitabine; first compound 0.05 µM
  relative viability: 0.532
Dasatinib + Decitabine; first compound 0.1581 µM
  relative viability: 0.292
Dasatinib + Decitabine; first compound 0.5 µM
  relative viability: 0.246
